Here are results for ten compounds from PubChem BioAssay (NCI).

SMILES strings stand for the structures. “And” between values parts separate entries of the source, which are not always exact repeats. Identical values can stand only once.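 How tested: cells in 96-well plates exposed to compound for 48 hours at five concentrations. GI50: concentration for 50% inhibition of growth. TGI: total growth inhibition.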

Among the test systems are CCRF-CEM leukemia; EKVX NSCLC; HCT-15 colon; M14 melanoma; NCI-H460 lung; SF-268 CNS; SF-295 CNS; SF-539 CNS; SN12C renal; SR leukemia.
Common to all, as to test: NCI-60 cell line screen, 48 h

As for `CN(C)c1ccc2c(c1)Sc1cc(N(C)C)ccc1N2C(=O)c1ccccc1`, the GI50 in the experiment on CCRF-CEM leukemia was over 100 µM; in the experiment with EKVX NSCLC it was 13.2 µM; in the experiment on HCT-15 colon it was 59.2 µM; with M14 melanoma it was 75 µM; with NCI-H460 lung it was 20.5 µM; in the experiment on SF-268 CNS it was 30.3 µM. In addition, the GI50 was 10.1 µM with SF-295 CNS, 38.2 µM with SF-539 CNS, over 100 µM with SN12C renal and 14.6 µM in the experiment with SR leukemia. Besides, the TGI with CCRF-CEM leukemia, in the experiment with EKVX NSCLC, with HCT-15 colon, in the experiment with M14 melanoma, in the experiment with NCI-H460 lung and with SF-268 CNS was over 100 µM each time. Besides, the TGI with SF-295 CNS, with SF-539 CNS, in the experiment with SN12C renal and in the experiment with SR leukemia was over 100 µM throughout.

As for `C=CC(=O)N1CCN(c2ccc3cccc(NC(=O)c4cnc(C)cn4)c3n2)CC1`, the GI50 in the experiment with CCRF-CEM leukemia was 2.08 µM; in the experiment on EKVX NSCLC, 12.4 µM; with HCT-15 colon, 2.08 µM; in the experiment on M14 melanoma, 3.05 µM; in the experiment on NCI-H460 lung, 2.51 µM; with SF-268 CNS, 3.67 µM. Further, the GI50 in the experiment on SF-295 CNS was 13.5 µM; in the experiment on SF-539 CNS, 3.16 µM; in the experiment on SN12C renal it was 2.47 µM; in the experiment on SR leukemia, 0.838 µM. Besides, the TGI in the experiment on CCRF-CEM leukemia is 8.29 µM; with EKVX NSCLC it was over 100 µM; in the experiment with HCT-15 colon, 24.6 µM; with M14 melanoma, 21.3 µM; in the experiment on NCI-H460 lung it was 19.7 µM; in the experiment on SF-268 CNS, 49.2 µM. Moreover, the TGI was over 100 µM in the experiment on SF-295 CNS, 15.3 µM in the experiment with SF-539 CNS, 16.2 µM with SN12C renal and 12.7 µM in the experiment with SR leukemia.

On to `CC(=O)OC1CCn2nnc(CO[Si](C)(C)C(C)(C)C)c21` (centres undefined), for which the TGI in the experiment with EKVX NSCLC, with HCT-15 colon, with M14 melanoma, with NCI-H460 lung, in the experiment with SF-295 CNS and in the experiment on SF-539 CNS was over 100 µM throughout. Moreover, the TGI with SN12C renal and in the experiment on SR leukemia was over 100 µM in each case.

As to `Cc1cc(N/N=C/c2nc(-c3ccc(Br)cc3)oc2C)c2cc(Cl)ccc2n1`, the GI50 in the experiment on CCRF-CEM leukemia, in the experiment on EKVX NSCLC, in the experiment on HCT-15 colon, in the experiment with M14 melanoma, with NCI-H460 lung and in the experiment with SF-268 CNS was over 100 µM in each case. Moreover, the GI50 in the experiment on SF-295 CNS, with SF-539 CNS, in the experiment on SN12C renal and in the experiment with SR leukemia was over 100 µM each time. Besides, the TGI with CCRF-CEM leukemia, with EKVX NSCLC, in the experiment with HCT-15 colon, in the experiment with M14 melanoma, in the experiment with NCI-H460 lung and in the experiment on SF-268 CNS was over 100 µM in each case. In addition, the TGI in the experiment on SF-295 CNS, with SF-539 CNS, in the experiment on SN12C renal and in the experiment with SR leukemia was over 100 µM throughout.

As to `C=CCc1cc(OC)c2c(c1)C(O)CC(c1ccccc1)O2` (centres undefined), the TGI in the experiment on CCRF-CEM leukemia, in the experiment with EKVX NSCLC, in the experiment with HCT-15 colon, in the experiment with M14 melanoma, in the experiment with NCI-H460 lung and with SF-268 CNS was over 100 µM throughout. The TGI with SF-295 CNS, in the experiment with SF-539 CNS, in the experiment on SN12C renal and in the experiment with SR leukemia was over 100 µM each time.

In the case of `CCOC(=O)C1Oc2ccc([N+](=O)[O-])c3c2C1(O)CCC3` (centres undefined), the TGI in the experiment with CCRF-CEM leukemia, in the experiment on EKVX NSCLC, in the experiment on HCT-15 colon, in the experiment with M14 melanoma, in the experiment with NCI-H460 lung and in the experiment with SF-268 CNS was over 100 µM throughout. Moreover, the TGI with SF-295 CNS, in the experiment with SF-539 CNS, with SN12C renal and in the experiment on SR leukemia was over 100 µM in each case.

As for `O=S(=O)(NCCNC/C=C/c1ccc(Br)cc1)c1cccc2cnccc12`, the GI50 was 3.45 µM and 13.3 µM in the experiment on CCRF-CEM leukemia; 5.25 µM and 6.38 µM with EKVX NSCLC; 11.2 µM and 11.4 µM in the experiment on HCT-15 colon; 12.8 µM and 15.3 µM with M14 melanoma; 9.76 µM and 15.4 µM in the experiment with NCI-H460 lung; 8.14 µM and 11.1 µM in the experiment with SF-268 CNS. Further, the GI50 in the experiment with SF-295 CNS was 6.47 µM and 11.6 µM; in the experiment with SF-539 CNS it was 7.74 µM and 9.35 µM; with SN12C renal it was 7.25 µM and 14.6 µM; in the experiment on SR leukemia, 13.6 µM. Further, the TGI with CCRF-CEM leukemia is 20.6 µM and 34.2 µM; with EKVX NSCLC it was 22.9 µM and 20.5 µM; with HCT-15 colon, 27.3 µM and 25.5 µM; with M14 melanoma, 26.4 µM and 30.9 µM; in the experiment with NCI-H460 lung, 26.2 µM and 31.6 µM; in the experiment with SF-268 CNS, 22.1 µM and 25.7 µM. Moreover, the TGI in the experiment on SF-295 CNS is 22.9 µM and 25.1 µM; in the experiment on SF-539 CNS, 21.9 µM and 22.6 µM; in the experiment on SN12C renal, 21 µM and 31.4 µM; with SR leukemia it was > 40.9 µM and 34.6 µM.

Consider `C=CCOC1OC(CO[Si](C)(C)C(C)(C)C)C(OCc2ccccc2)C(OCc2ccccc2)C1OCc1ccccc1` (centres undefined), for which the TGI in the experiment on CCRF-CEM leukemia, with EKVX NSCLC, with HCT-15 colon, in the experiment with M14 melanoma, in the experiment with NCI-H460 lung and in the experiment on SF-268 CNS was over 100 µM in each case. Further, the figures for the TGI in the experiment on SF-295 CNS, in the experiment with SN12C renal and in the experiment with SR leukemia were 54.9 µM, over 100 µM and over 100 µM, respectively.

As for `C[Si](C)(C)OC1(C#N)C2C3CC4C2C(=O)C2C4C3C21` (centres undefined), the TGI in the experiment on CCRF-CEM leukemia, with HCT-15 colon, in the experiment with M14 melanoma, with NCI-H460 lung, in the experiment on SF-268 CNS and in the experiment with SF-539 CNS was over 100 µM in each case. The TGI in the experiment with SN12C renal and in the experiment with SR leukemia was over 100 µM throughout.

Regarding `O=S(=O)(c1ccccc1)C(CN1CCCCC1)S(=O)(=O)c1ccccc1`, the TGI in the experiment with CCRF-CEM leukemia, in the experiment with HCT-15 colon, with M14 melanoma, in the experiment on NCI-H460 lung, in the experiment on SF-268 CNS and in the experiment with SF-295 CNS was over 100 µM each time. Further, the TGI with SF-539 CNS, in the experiment on SN12C renal and with SR leukemia was over 100 µM each time.
